Reference: BindingDB's records for doi:10.1016/S0960-894X(00)80655-1 (1992)

These molecules were tested against Polyunsaturated fatty acid 5-lipoxygenase (Cavia porcellus) (assay: Inhibition of [14C]arachidonic acid conversion to 5-HETE by broken cell 5-LO isolated from guinea pig PMN).

Structure (SMILES) | IC50 [nM]
O=c1c2c([nH]n1CCOc1ccc3ccccc3c1)CCCC2 [2-[2-(Naphthalen-2-yloxy)-ethyl]-2,3a,4,5,6,7-hexahydro-indazol-3-one] | 310
O=c1c2c([nH]n1CCOc1ccc3ccccc3c1)CCC2 [2-[2-(Naphthalen-2-yloxy)-ethyl]-3a,4,5,6-tetrahydro-2H-cyclopentapyrazol-3-one] | 480
Cc1cc(=O)n(CCOc2ccc3c(c2)Nc2ccccc2S3)[nH]1 [5-Methyl-2-[2-(10H-phenothiazin-2-yloxy)-ethyl]-2,4-dihydro-pyrazol-3-one] | 57
